According to US20150044717A1, “DEVICES AND METHODS FOR OBSERVING EUKARYOTIC CELLS WITHOUT CELL WALL” (CENTRE NATIONAL DE LA RECHERCHE SCIENTIFIQUE, priority 2012, published 2015):

Tested on: cytokinetic ring of HeLa cells
Assay: closure of the cytokinetic ring of cells in egg cups after addition of drugs (fluorescence microscopy)
Format: cell-based, human
Settings: for ring diameter as a function of time / closing speed: after addition of latrunculin A 1.5 μM
Experimental: For the experiments, a human HeLa cell line was used. The cells were stably transfected with a plasmid coding for actin monomers tagged with GFP. Cells were cultured in a growth medium containing DMEM with 10% FCS and 2 mM of L-Glutamine. After replating cells, Geneticin (0.5 mg/ml) was added to the medium.
During the experiments, cells were cultured in L-15 with 10% FCS and 2 mM of L-Glutamine.
Synchronized cells were obtained by mitotic shake-off. To have a sufficient number of dividing cells, cells were cultured in flasks of 75 cm^2 surface. The flasks were tapped on a solid surface to detach loosely attached cells, which rounded up before undergoing division. Alternatively, cells were synchronized with classical protocols such as the thymidine block, mitotic block (both Whitfield M L, Mol. Cell. Biol. 2000, 20(12): 4188-4198) or monastrol incubation (Straight A F et al., Science. 2003, 299:1743-1747).
The coverslips with the egg cups were exposed to nitrogen plasma for 30 s and then incubated with a solution of fibronectin (20 μg/ml in phosphate buffered saline (PBS), Sigma Aldrich) for 1 h. The sample could be stored in PBS for some hours. A cylindrically shaped plastic piece was placed in a 50 ml tube. The tube was filled with 6.5 ml of growth medium. The egg cup coverslip was horizontally placed in a tube, supported by the plastic cylinder. The suspension of synchronized cells was added on top of the coverslip. The tube was centrifuged for 5 min at 4000 rpm. The coverslip was carefully removed from the tube and installed in a home-made metallic holder. L-15 medium with 10% FCS and 2 mM L-Glutamine was immediately added. During the experiment the holder was closed by a plastic cover to prevent evaporation.
The drugs were added immediately before the experiment. The inventors used a concentration of 1.5 μM latrunculin A (Sigma Aldrich) (Delanoc-Ayari H. et al., Phys. Rev. Lett. 2004, 93(10): 108102) and 100 μM (−)-blebbistatin (Sigma Aldrich) (Straight A F et al., Science. 2003, 299:1743-1747).
The objective was a Plan Apo 60× objective (oil, 1.40 NA, Nikon). The images were captured and processed with the NIS Elements software (v3.10, SP3, Nikon).

[1] = blebbistatin 100 μM, HeLa cells in egg cups

Structure (SMILES) | cell division (ring diameter as a function of time) [1] | closure of the cytokinetic ring [1] | ring diameter as a function of time / closing speed (HeLa cells in egg cups) | ring diameter as a function of time / closing speed (HeLa cells in egg cups, listed as latrunculin A) | cell division (in the presence of latrunculin A 1.5 μM, HeLa cells in egg cups) | closure of the cytokinetic ring (latrunculin A 1.5 μM, HeLa cells with GFP-actin in egg cups)
Cc1ccc2c(c1)C(=O)C1(O)CCN(c3ccccc3)C1=N2 (single isomer, unassigned; (-)) [Blebbistatin, (−)-blebbistatin] | slows down and stops the division | the closure was slowed down and failed | – | – | – | –
C/C1=C/C(=O)O[C@@H]2C[C@@H](CC[C@H](C)/C=C\C=C\CC1)O[C@@](O)([C@@H]1CSC(=O)N1)C2 [Latrunculin A, latrunculin A] | – | – | a slight increase in closing speed, then a slight expansion of the ring | the speed is first slightly increasing, then the ring becomes larger again until the signal vanishes | Cells did not divide | the ring does not close completely
